Legend:
Format in all cases: cell-based, mouse
ChAT = ChAT expression in N2a cells with or without Trk inhibitor K252a; conditions: K252a 50 nM, ginsenoside 5 μg/mL, 48 h (FIG. 12)
Description: (§1) Since NGF-Trk signal pathway upregulates ChAT and VAChT, it is important to know whether ginsenosides Rd and Re regulate Trk activity directly or at least indirectly. Therefore, the inventor investigated whether the expression of ChAT and VAChT was blocked by treating K252a, an inhibitor against protein kinase C (PKC) and Trk together with ginsenoside Rd or Re, in order to determine more closely whether the expression of cholinergic surface markers and the differentiation of neurons by the treatment of ginsenosides Rd and Re are caused whereby they act NGF-TrkA pathway directly. Particularly, N2a cells were treated with or without K252a (50 nM) in the presence of NGF (100 ng/mL), Re (5 μg/mL) or Rd (5 μg/mL) for 48 h. Total RNA and protein lysates were isolated as described in the Example 4-1 (FIG. 12). […] In addition, the present inventor performed quantitative RT-PCR in order to verify whether the treatment of ginsenosides Rd and Re affect the expression of NGF and NGFR in N2a cells.

NGFR (p75) = NGFR (p75) mRNA expression in N2a cells (quantitative RT-PCR); conditions: N2a cells (FIG. 13)
Description: as §1

acetylcholine = experiment: Acetylcholine content in culture medium of N2a cells (assay kit); conditions: culture medium of N2a cells, 1, 2.5 and 5 μg/ml, 48 h (FIG. 7F)
Method: Further, the present inventor measured contents of acetylcholine in culture medium of N2a cells treated with Rd and/or […] (1, 2.5 and 5 μg/ml) for 48 h using a commercial acetylcholine assay kit (Cell Biolabs, USA), based on the enzyme driven reaction that will detect acetylcholine via acetylcholine esterase enzyme and choline oxidase according to the manufacturer's instruction (FIG. 7F).

Akt = Akt phosphorylation in N2a cells (western blot); conditions: compared with NGF (FIG. 10)
Description: (§2) The cholinergic marker ChAT and VAChT are known activate the ERK and Akt lower level path for cholinergic gene expression (Williams et al., Neurosci. Lett., 413: 110-114, 2007; Madziar et al., J. Neurochem., 107: 1284-1293, 2007) by controlling the NGF-TrkA signaling pathway. Thus, the present inventor investigated whether ginsenosides Rd and Re regulate activity of ERK and Akt in N2a cells using through western blot analysis. Specifically, N2a cells were lysed in 1% radioimmunoprecipitation assay (RIPA) buffer containing protease and phosphatase inhibitors (Roche, Mannheim, Germany) and whole cell lysates were separated by 10% sodium dodecyl sulfate polyacrylamide gel electrophoresis (SDS-PAGE). After electrophoresis, proteins were transferred onto polyvinylidene fluoride (PVDF) membranes and the membranes were blocked with 5% skim milk in Tris-buffered saline solution containing 0.1% Tween-20. The membrane was then immunoblotted with primary antibodies, anti-phospho-Akt, anti-phospho-extracellular signal-regulated protein kinase (ERK), anti-ChAT and anti-f3-actin (Santa Cruz Biotechnology, Santa Cruz, USA), and this was followed by incubation with horseradish peroxidase-conjugated anti-rabbit or anti-mouse secondary antibodies (Stressgen, USA). Blots were developed using an enhanced chemiluminescence (ECL) solution (Thermo, USA).

p75 = p75 protein immunocytochemistry in N2a cells; conditions: compared with NGF (FIG. 9B)
Method: (§3) Followed by the RT-PCR analysis, the present inventor investigated whether ginsenosides Re and Rd induce the expression of MAP-2 and p75 and the differentiation of neurons actually, via immunocytochemistry and morphological analysis using optical microscopic observation.
(§4) Specifically, Cultured N2a cells were fixed in 4% paraformaldehyde (in PBS) for 15 min, washed twice with PBS supplemented with 100 mM glycine for 5 min, and incubated with permeabilization buffer consisting of 0.1% Triton X-100 (Sigma-Aldrich, USA) in PBS for 30 min at room temperature. Blocking was performed with 1% bovine serum albumin (BSA, Sigma-Aldrich, USA) for 30 min at room temperature. Then Microtubule-Associated Protein-2 (MAP-2) or VAChT mouse monoclonal antibody 1:200 (Santa Cruz Biotechnology, USA) was added to 1% BSA in PBS with Tween 20 (PBST) and incubated for 2 h at room temperature. Cells were then washed three times with PBS before fluorescein isothiocyanate (FITC)-conjugated anti-mouse immunoglobulin G (IgG) 1:200 (Cell Signaling Technology, USA) was added to 1% BSA for 1 h at room temperature. The cells were rinsed and counterstained with 4,6-diamidino-2-phenylindole (DAPI, Sigma-Aldrich) for 10 min, followed by two PBS washes. […]

MAP-2 = MAP-2 protein immunocytochemistry in N2a cells; conditions: compared with NGF (FIG. 9A)
Method: as §3, §4

ERK = ERK phosphorylation in N2a cells (western blot); conditions: compared with NGF (FIG. 10)
Description: as §2

N2a cells = experiment: Morphological analysis of N2a cells (optical microscopy); conditions: untreated cells mostly rounded (FIG. 9C)
Method: as §3, §4

| Compound | ChAT expression on co-treatment with K252a compared with single treatment (ChAT) | NGFR (p75) mRNA level (NGFR (p75)) | acetylcholine production (acetylcholine) | Akt activation (phosphorylation) (Akt) | p75 protein expression (p75) | production of MAP-2 protein (MAP-2) | ERK activation (phosphorylation) (ERK) | morphological changes of N2a cells (N2a cells) |
| --- | --- | --- | --- | --- | --- | --- | --- | --- |
| CC(C)=CCC[C@](C)(O[C@@H]1O[C@H](CO)[C@@H](O)[C@H](O)[C@H]1O)[C@H]1CC[C@]2(C)[C@@H]1[C@H](O)C[C@@H]1[C@@]3(C)CC[C@H](O[C@@H]4O[C@H](CO)[C@@H](O)[C@H](O)[C@H]4O[C@@H]4O[C@H](CO)[C@@H](O)[C@H](O)[C@H]4O)C(C)(C)[C@@H]3CC[C@]12C [ginsenoside Rd] | inhibited | significantly increased | increased significantly | could activate ERK and Akt with phosphorylation as much as NGF | switched to p75-positive N2a cells to the same or more extent as NGF | stimulated effectively the production of MAP-2 protein | could activate ERK and Akt with phosphorylation as much as NGF | induced the production of distinctive multiple projections |
| CC(C)=CCC[C@](C)(O[C@@H]1O[C@H](CO)[C@@H](O)[C@H](O)[C@H]1O)[C@H]1CC[C@]2(C)[C@@H]1[C@H](O)C[C@@H]1[C@@]3(C)CC[C@H](O)C(C)(C)[C@@H]3[C@@H](O[C@@H]3O[C@H](CO)[C@@H](O)[C@H](O)[C@H]3O[C@@H]3O[C@@H](C)[C@H](O)[C@@H](O)[C@H]3O)C[C@]12C [ginsenoside Re] | inhibited | significantly increased | increased significantly | could activate ERK and Akt with phosphorylation as much as NGF | switched to p75-positive N2a cells to the same or more extent as NGF | stimulated effectively the production of MAP-2 protein | could activate ERK and Akt with phosphorylation as much as NGF | induced the production of distinctive multiple projections |

From patent publication US20160022751A1, “NOVEL COMPOSITION FOR TREATING ALZHEIMER'S DISEASE AND IMPROVING COGNITIVE FUNCTION OF ALZHEIMER'S PATIENTS” (GANGNEUNG-WONJU NATIONAL UNIVERSITY INDUSTRY ACADEMY …, priority 2014, published 2016)
